# Molecular target: T1, peptide deformylase (Escherichia coli, UniProt P0A6K3)
# T1 construct: made in house
# Experiment: Peptide deformylase assay (continuous / discontinuous, f-ML-pNA substrate coupled with Aeromonas aminopeptidase)
# Type: biochemical
# Conditions: tested as a 1:1 mixture of diastereomers; read-out: IC50 against peptide deformylase
# Experimental: The dipeptide substrate, N-formyl-methionylleucyl-p-nitroanilide (f-ML-pNA) is first deformylated by the peptide deformylase to give the corresponding dipeptide with a free amino terminus, which is a substrate for an aminopeptidase from Aeromonas proteolytica (Sigma Chemical Company). Sequential action by the aminopeptidase releases p-nitroaniline, a chromophore which can be detected spectrophotometrically. Peptide deformylase enzyme is prepared as described in Rajagopalan et al., Biochemistry (1997) 36:13910-13918. The dipeptide substrate is prepared as described in Wei and Pei (1997) Anal. Biochem. 250:29-34. Assays are carried out at 23° C. Assays are performed in polystyrene cuvettes which contain 50 mM potassium phosphate, pH 7.0, 100 μM ethylene glycol bis(b-aminoethyl ether)-N,N′-tetraacetic acid (EGTA), 0 to 200 μM peptide substrate, and 0.8 unit Aeromonas aminopeptidase. […] Reactions are monitored continuously at 405 nm in a Perkin-Elmer λ3 UV/VIS spectrophotometer, and the initial rates are calculated from the early part of the reaction progression curves (<60 s). […]
# Discontinuous reactions are carried out in a buffer containing 50 mM potassium phosphate, pH 7.0, 100 μM EGTA, and 0 to 200 μM peptide substrate (total volume 250 or 500 μl). […] The amount of p-nitroaniline released is determined by measuring its absorbance at 405 nm. […]
# T1 sequence (P0A6K3 whole entry): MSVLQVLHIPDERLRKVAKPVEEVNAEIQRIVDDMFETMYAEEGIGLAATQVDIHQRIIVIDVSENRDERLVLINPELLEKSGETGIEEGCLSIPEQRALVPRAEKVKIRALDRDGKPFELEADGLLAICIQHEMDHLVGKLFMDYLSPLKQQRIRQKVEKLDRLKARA
row,SMILES,IC50
1,CCCCC(CS)C(=O)N[C@@H](CC(C)C)C(=O)Nc1ccc([N+](=O)[O-])cc1 (mixture of isomers) [Compound 110],< 10 µM
2,CCCCC(CS)C(=O)N[C@H](C(=O)N1CCC[C@H]1CO)C(C)C (mixture of isomers) [Compound 111],< 10 µM

# Reference: patent US6448058B1, “Methods for solid phase synthesis of mercapto compounds and derivatives, combinatorial libraries thereof and compositions obtained thereby” (Versicor, Inc., priority 1997, dated 2002)
